In patent US20220249533A1, “COMPOSITIONS AND METHODS FOR BONE REPAIR AND BONE HEALTH” (DUKE UNIVERSITY, priority 2019, published 2022):

Assays:
[1] = system: OVX mice; assay: A2BR agonist BAY 60-6583 treatment of OVX animals; type: in vivo
[2] = system: young and old mice bone marrow stromal cells; assay: Alizarin Red S deposition, bone marrow stromal cells with adenosine; type: cell-based, mouse
Description: Alizarin Red S, an anthraquinone derivative, may be used to identify calcium in tissue sections. […] Calcium forms an Alizarin Red S-calcium complex in a chelation process, and the end product is birefringent. […]
• Aspirate medium from cell dish (P1 cells). • Rinse with sterile PBS, aspirate. • Add 5 mL trypsin (T75 flask), incubate for 4 min at 37 C. • Add 5 mL GM to stop. • Use cell scraper to further release cells. • Transfer to tube, use additional 5 mL GM to rinse the dish and transfer. • Spin down at 1200 rpm for 4 min. • Resuspend cells, seed into culture plate at 20,000 cells/cm^2. • 2 mL/well in 6-well • 0.5 mL/well in 24-well • Freeze the rest cells in freezing medium. • 10% DMSO • 90% GM • Prepare GM-ADO (60 ug/mL) fresh: • 18 mL GM • 180 uL ADO stock (6 mg/mL) • Refresh medium daily for two weeks with the culture conditions: • GM • GM-ADO • OM (positive control) • In the third week, use phosphate supplementation: • GM+ADO +3 mM phosphate • GM+3 mM phosphate • OM (positive control) • Alizarin red S staining at 14 d and 21 d • Wash cells gently with PBS. • Fix with 4% PFA for 15 min. […] Discard milliQ water. • Alizarin red S quantification • Add 500 ul of HCl (0.5M) to each well for 10 min. at room temp with gentle shaking. • Transfer HCl solution in each well into one 1.5 ml microcentrifuge tube. […]

[3] = system: mouse mononuclear cells undergoing osteoclast differentiation; assay: Osteoclast differentiation with adenosine in vitro; type: cell-based; settings: adenosine 30 μg/ml, 6 days of osteoclast differentiation
Description: All buffers used were ice cold, unless otherwise indicated. Briefly, the femur, tibia, humerus, radius, ulna, and vertebra were harvested and crushed with pestle and mortar in harvest buffer [phosphate-buffered solution (PBS) and FBS (2%, v/v)] to release BM tissue. BM was passed through a 70-μm cell strainer and centrifuged at 200 g for 5 min. Cells were resuspended in harvest buffer, gently layered onto Ficoll-Paque PLUS (GE Healthcare, Marlborough, Mass.) at 1:1 ratio, and centrifuged without rotor acceleration and deceleration at 200 g for 15 min. Afterward, the opaque middle layer with cells was collected, washed with harvest buffer, and centrifuged at 200 g for 5 min to yield a cell pellet. Isolated mononuclear cells were cultured in macrophage induction media, containing growth media, prostaglandin E2 (PGE2; 10^−7 M; Santa Cruz Biotechnology, Dallas, Tex.), and M-CSF (10 ng/ml; PeproTech, Rocky Hill, N.J.) at 100,000 cells/cm^2. For osteoclast differentiation, macrophages cultured for 3 days were further induced in osteoclast induction media containing growth media, PGE2 (10^−7 M), M-CSF (10 ng/ml), and RANKL (10 ng/ml; PeproTech). […]

[4] = system: primary mouse osteoprogenitor cells; assay: Adenosine-induced osteogenic differentiation in vitro; type: cell-based; settings: adenosine 30 μg/ml, 7 or 14 days, no osteogenic-inducing factors
Description: Osteoprogenitor cells were isolated as previously described with modifications. All buffers were ice cold, unless otherwise indicated. Briefly, the femur, tibia, humerus, radius, and ulna of mice were harvested. BM was flushed out and discarded. The bone was collected and cut into 1-mm^3 chips in harvest buffer and then digested in digestion buffer containing growth media [α minimum essential medium (αMEM), fetal bovine serum (FBS) (10%, v/v), penicillin/streptomycin (10,000 U/ml; 1%, v/v)], and collagenase type 2 (1 mg/ml, w/v; Worthington Biochemical, Lakewood, N.J.) while shaking at 60 rpm on orbital shaker (catalog no. 51700-13, Cole-Parmer, Vernon Hills, Ill.) in humidified incubator (37° C., 5% CO2) for 1.5 hours. Digested bone chips were rinsed three times with growth media and transferred to two wells of six-well plate for culture. Media were […] days, and bone chips were further cultured for 3 days for cells to adhere and proliferate before passage. For the first passage, cells were treated with 0.25% trypsin-EDTA (Thermo Fisher Scientific) for 3 min, neutralized with growth media, detached with cell scraper, and subcultured along with bone chips. The procedure for subsequent passages were similar but without bone chips. All experiments were performed at three to four passages. […]

Compound | bone tissue, H&E staining ([1]; 1 mg/kg intraperitoneally every 2 days, 8 weeks) | OVX changes of vertebra BMD, BV/TV, Tb.N, Tb.Sp by microCT ([1]; 8 weeks) | femur bone volume (BV/TV) by microCT ([1]; 8 weeks) | mineral apposition rate and bone formation rate ([1]; 8 weeks, bone labeling) | maximum load and stiffness of tibia ([1]; 8 weeks, compared to the corresponding controls) | TRAP-positive cells on the bone surface ([1]; 8 weeks, compared to the vehicle control) | CD73 and CD39 expression levels, immunofluorescence ([1]; vehicle- vs BAY 60-6583-treated groups) | fold change of alizarin red S deposition, ADO compared to GM ([2]; female) | osteogenic differentiation, alizarin red S deposition ([2]; young and aged cells from either sex, 2D culture, ADO 60 ug/mL) | expression of Nfatc1, ACP5 and CTSK [3] | expression of osterix (OSX) and osteopontin (OPN) [4]
N#Cc1c(N)nc(SCC(N)=O)c(C#N)c1-c1ccc(OCC2CC2)cc1 [BAY 60-6583] | attenuation of bone loss | attenuated | bone loss was diminished | abrogation of the bone loss | improved | decreased number | no significant differences | – | – | – | –
Nc1ncnc2c1ncn2[C@@H]1O[C@H](CO)[C@@H](O)[C@H]1O [adenosine] | – | – | – | – | – | – | – | larger fold change | induced osteogenic differentiation | reduced expression | up-regulation
